Like-named read-outs stand apart in the source and are kept apart here.
Legend:
[1] = Summary score for characterization of 38 core set hits; settings: for D = Triple resistant: 2-point score, multiplex resistance (cadmium, MMS, H2O2); for S = Sum of Negative scores: human; for C = H2O2- & Cd-resistant: score, resistance to both H2O2 and cadmium
How it was run: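 Hits from a small-molecule screen for H2O2 resistance were scored across characterization assays. Multiplex resistance, FOXO3 and/or NRF2 activation and mTOR down-regulation each earned 2 points. C. elegans lifespan, tested in 4 to 6 independent trials, scored 0–2, and DNA-damaging or cytotoxic effects in cultured human cells cost one point.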

WI-38 cells [2] = settings: for Percentage of propidium iodide-positive dead cells (no H2O2 stress treatment), at 10 uM: negative control 0.41% ± 0.23%
Procedure: WI-38 cells were seeded on 384-well plates for 24 hrs and then incubated with small molecules for 24 hrs. […] Images were collected on an INCell Analyzer 2000 (GE) and analyzed with the Developer software.

[3] = test system: PC12 cells expressing poly(Q)103-Htt-EGFP; assay: Poly(Q) toxicity & viability analysis (cellular model of Huntington's disease); format: cell-based, rat; settings: for M = Huntington's poly-Q toxicity attenuation: score; for K = Huntington's poly-Q toxicity attenuation: summary score
How it was run: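 Readout is CellTiter-Glo ATP content measured after 48 hrs. Cells are a PC12 line stably expressing inducible poly(Q)103-Htt-EGFP, where induction produces toxic aggregates.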

human PARP1 = molecular target: T1, human PARP1 (Homo sapiens, UniProt P09874); assay: PARP inhibitor assay (HT Fluorescent Homogeneous PARP Inhibition Assay Kit); format: biochemical; settings: for L = PARP inhibition: score
T1 construct: purchased Trevigen
T1 sequence (P09874 whole entry): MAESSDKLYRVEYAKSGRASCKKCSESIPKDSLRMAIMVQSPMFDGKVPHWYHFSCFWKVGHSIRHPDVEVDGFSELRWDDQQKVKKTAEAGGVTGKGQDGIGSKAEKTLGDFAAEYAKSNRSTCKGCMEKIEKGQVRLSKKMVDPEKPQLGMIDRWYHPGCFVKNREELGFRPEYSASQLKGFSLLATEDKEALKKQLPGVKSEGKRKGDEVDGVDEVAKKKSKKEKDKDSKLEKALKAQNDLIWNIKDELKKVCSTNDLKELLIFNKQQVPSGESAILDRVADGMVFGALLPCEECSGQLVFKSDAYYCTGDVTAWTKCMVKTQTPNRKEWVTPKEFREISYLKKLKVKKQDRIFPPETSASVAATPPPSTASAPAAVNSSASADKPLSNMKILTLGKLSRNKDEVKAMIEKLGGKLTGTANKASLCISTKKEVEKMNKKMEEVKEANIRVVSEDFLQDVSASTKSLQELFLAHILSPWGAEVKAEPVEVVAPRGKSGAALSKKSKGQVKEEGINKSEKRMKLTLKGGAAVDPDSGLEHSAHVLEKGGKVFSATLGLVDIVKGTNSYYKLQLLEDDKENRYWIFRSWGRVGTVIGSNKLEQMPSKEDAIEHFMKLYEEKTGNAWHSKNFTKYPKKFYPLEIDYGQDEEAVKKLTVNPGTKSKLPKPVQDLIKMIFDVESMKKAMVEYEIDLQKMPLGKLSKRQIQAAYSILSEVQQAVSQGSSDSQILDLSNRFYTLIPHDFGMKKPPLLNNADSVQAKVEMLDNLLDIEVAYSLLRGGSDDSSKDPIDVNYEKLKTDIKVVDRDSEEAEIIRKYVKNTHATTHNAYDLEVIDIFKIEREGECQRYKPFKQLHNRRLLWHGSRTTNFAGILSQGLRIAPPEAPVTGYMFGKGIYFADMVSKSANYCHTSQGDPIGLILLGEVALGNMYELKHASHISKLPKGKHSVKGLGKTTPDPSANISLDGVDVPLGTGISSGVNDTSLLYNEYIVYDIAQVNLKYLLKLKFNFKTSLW
How it was run: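 Compounds (10 μM final) incubated 30 min, room temperature, dark, with human PARP1, nicotinamide adenine dinucleotide and activated DNA. Fluorescent signal generated by 1 hr cycling with diaphorase and resazurin, then reaction stopped.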

WI-38 cells [4] = assay: CdCl2 (cadmium) resistance assay; format: cell-based, human; settings: for fold induction at 10 µM: Homo sapiens, 12 h, normalized ATP measurement; for Assay 4: H2O2- & Cd-resistant / Assay 2: Cadmium-resistant: YES/NO; for Assay 2: Cadmium-resistant: * indicates partial
How it was run: (§1)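 Resistance to CdCl2 or MMS stress (12 h exposure) was scored in WI-38 fibroblasts pretreated with compound at 0.25–20 μM final, five doses, technical triplicates. MMS plates had compound added 24 h before MMS, after a shift to serum-free DMEM+2% BSA. Significance came from a global variance t-test over two independent runs.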

WI-38 cells [5] = assay: MMS resistance assay; format: cell-based, human; settings: for fold induction at 10 µM: Homo sapiens, 12 h, normalized ATP measurement
How it was run: as §1

[6] = test system: human dermal fibroblast (HDF) primary cells; assay: H2O2-resistance in primary human dermal fibroblasts; format: cell-based; settings: for fold induction at 10 µM: Homo sapiens; for Assay 6: H2O2-resistant, at 10 uM, human dermal fibroblast (HDF) primary cells: YES/NO
WI-38 cells [7] = assay: Propidium iodide (PI) cell-death imaging upon H2O2 stress; format: cell-based, human; settings: for Assay 7: H2O2-resistant, at 10 uM, validated by propidium iodide (PI) cell-death imaging: w/H2O2, 3 hrs/4 hrs/5 hrs, YES/NO; for cytotoxicity at 10 µM: Homo sapiens, WI-38
[8] = Exp. 1, WI-38 cells, read-out: Exp. 1, under Cd2Cl2 stress treatment, at 10 uM (fold change)
[9] = Exp. 2, WI-38 cells, read-out: Exp. 2, under Cd2Cl2 stress treatment, at 10 uM (fold change)
[10] = score in summary of 38 core set hits
[11] = Exp. 1, WI-38 cells, read-out: Exp. 1, under MMS stress treatment, at 10 uM (fold change)
[12] = Exp. 2, WI-38 cells, read-out: Exp. 2, under MMS stress treatment, at 10 uM (fold change)
[13] = Experiment 1, HDF cells, read-out: Experiment 1, HDF cells (under H2O2 stress treatment), at 10 uM (fold change)
[14] = Experiment 2, HDF cells, read-out: Experiment 2, HDF cells (under H2O2 stress treatment), at 10 uM (fold change)
[15] = H2O2 3 hrs, 10 uM, n = 6, negative control 5.44% ± 0.79%, read-out: Percentage of propidium iodide-positive dead cells (under H2O2 stress treatment), 3 hrs
[16] = pre-treatment at 10 uM, 3.5 hours of H2O2, DMSO control 27.4% ± 6.5%, */**/*** = reduced by one/two/three standard deviations, read-out: Percentage of propidium iodide-positive dead cells (under H2O2 stress treatment), at 10 uM

SMILES	D = Triple resistant [1]	S = Sum of Negative scores [1]	C = H2O2- & Cd-resistant [1]	Percentage of propidium iodide-positive dead cells (no H2O2 stress treatment), at 10 uM (WI-38 cells [2])	M = Huntington's poly-Q toxicity attenuation [3]	K = Huntington's poly-Q toxicity attenuation [3]	L = PARP inhibition (human PARP1)	fold induction at 10 µM (WI-38 cells [4]; [8])	fold induction at 10 µM (WI-38 cells [4]; [9])	Assay 4: H2O2- & Cd-resistant (WI-38 cells [4])	Assay 2: Cadmium-resistant (WI-38 cells [4])	A = Cadmium resistant (WI-38 cells [4]; [10])	A = Cadmium resistant (WI-38 cells [4]; summary score)	C = H2O2- & Cd-resistant (WI-38 cells [4]; summary score)	fold induction at 10 µM (WI-38 cells [5]; [11])	fold induction at 10 µM (WI-38 cells [5]; [12])	B = MMS resistant (WI-38 cells [5]; [10])	B = MMS resistant (WI-38 cells [5]; summary score)	D = Triple resistant (WI-38 cells [5]; summary score)	fold induction at 10 µM [6, 13]	further results
CCCN1C/C(=C\c2ccc(F)cc2)C(=O)/C(=C/c2ccc(F)cc2)C1 [O15]	0	0	0	3.76% ± 0.68%,	0	0	0	0.18	0.57	YES	YES	0	1	1	0.16	0.38	0	0	0	0.57	PI cell-death imaging without H2O2 (indicating potential toxicity) (WI-38 cells [2]; Assay 8(k), without H2O2, at 10 uM): YES; PI-positive dead cells under normal conditions (WI-38 cells [2]; WI-38, no H2O2, control 0.4±0.2%): 3.8%±0.7%; fold induction at 10 µM [6, 14]: 1.77; Assay 6: H2O2-resistant, at 10 uM, human dermal fibroblast (HDF) primary cells [6]: YES; Assay 7: H2O2-resistant, at 10 uM, validated by propidium iodide (PI) cell-death imaging (WI-38 cells [7]; 10 uM): YES; cytotoxicity at 10 µM (WI-38 cells [7]; [15]): 4.04%; cytotoxicity at 10 µM (WI-38 cells [7]; H2O2 4 hrs, 10 uM, n = 6, negative control 16.81% ± 1.42%, read-out: Percentage of propidium iodide-positive dead cells (under H2O2 stress treatment), 4 hrs): 4.4%; cytotoxicity at 10 µM (WI-38 cells [7]; H2O2 5 hrs, 10 uM, n = 6, negative control 22.50% ± 1.53%, read-out: Percentage of propidium iodide-positive dead cells (under H2O2 stress treatment), 5 hrs): 6.06%; cytotoxicity at 10 µM (WI-38 cells [7]; [16]): 6.8%
O=C1NCCCc2cc(Cl)sc21 [O1]	0	0	1	0.30% ± 0.13%,	0	0	1	1.84	1.86	YES	YES	1	1	1	1.2	4.96	0	0	0	2.95	Inhibition of PARP1 (human PARP1; 10 μM, in vitro): inhibitors of PARP1; CdCl2-resistant (WI-38 cells [4]): YES; H2O2- & CdCl2-resistant (WI-38 cells [4]): YES; CdCl2-resistant (WI-38 cells [4]; WI-38 cells, 10 μM): YES; H2O2- & CdCl2-resistant (WI-38 cells [4]; WI-38 cells, 10 μM, both stressors): YES; fold induction at 10 µM [6, 14]: 17.8; Assay 6: H2O2-resistant, at 10 uM, human dermal fibroblast (HDF) primary cells [6]: YES; Assay 7: H2O2-resistant, at 10 uM, validated by propidium iodide (PI) cell-death imaging (WI-38 cells [7]; 10 uM): YES; cytotoxicity at 10 µM (WI-38 cells [7]; [15]): 5.8%; cytotoxicity at 10 µM (WI-38 cells [7]; [16]): 20.4%
